Data: patent publication US20240239804A1, “FUROINDAZOLE DERIVATIVES AS ANTAGONISTS OR INHIBITORS OF GPR84” (Bayer Aktiengesellschaft, priority 2021, published 2024)
Where a name gives a salt, the structure may show the parent alone.

Target: T1, human GPR84 receptor (Homo sapiens, UniProt Q9NQS5)
T1 construct: frozen aliquots prepared by acCELLerate; host or cells: CHO-K1
Test: cAMP HTRF assay for identification of cellular GPR84 antagonists
Assay type: cell-based
Settings: CHO-K1 cells stably expressing human GPR84; Forskolin plus agonist 6-OAU; cAMP HTRF readout; average or median values
Description: cAMP HTRF® Assay for Identification of Cellular GPR84 Antagonists
By using a Homogenous Time-Resolved Fluorescence (HTRF®) based assay (#62AM5PEJ, Cisbio, Condolet, France) the inhibition of the Gi-coupled GPR84 receptor can be detected. CHO-K1 cells stably expressing human GPR84 receptor (purchased from DiscoveRx, now Eurofins) were used and treated with Forskolin (F6886, Sigma, Germany) to stimulate membrane adenylyl cyclases and thereby unspecific cAMP formation. Activation of the Gi-coupled GPR84 by a natural or small molecule agonist (e.g. 6-n-octyl aminouracile, inhouse) results in inhibition of cellular cAMP formation which can be released again by antagonists to this receptor. Detection and quantification of cellular cAMP levels in this HTRF assay is achieved by interaction between a fluorescent cAMP tracer (cAMP-d2) and an Eu-cryptate labelled anti-cAMP antibody. Following excitation at 337 nm this pairing allows for the generation of a fluorescence resonance energy transfer (FRET) between the partners and results in FRET induced emissions at 665 nm and 620 nm, the latter representing background signal by Eu-cryptate labelled anti-cAMP antibody. Maximal signal is obtained in the absence of any cellular cAMP (no competition for the binding of the tracer to the antibody). Given the combination of the Gi coupling properties of GPR84 and the competitive nature of the detection system agonist treatment should result in an increase in the HTRF signal due to lowered cAMP levels. Any signal decrease in the presence of Forskolin, agonist and compound are indicative of antagonist mediated abrogation of GPR84 signalling.
For the assay, frozen aliquots of CHO-K1 cells expressing hGPR84 (prepared by acCELLerate, Hamburg, Germany) were thawed and a cell suspension (1.67E+06 cells/mL) in assay media (Ham's F12 Nutrient Mix, Thermo Fisher Scientific, Waltham, USA; 5% fetal calf serum, Biomol, Hamburg, Germany) containing cAMP-d2 (dilution 1:20, supplied with the kit #62AM5PEJ, Cisbio, Condolet, France) was prepared. After recovery of cells for 20 minutes at 37° C., 3 μL/well cell suspension including cAMP-d2 were added to a pre-dispensed assay plate (Greiner Bio-One, Kremsmuenster, Austria) containing 50 nl/well test compound in 100% DMSO or 100% DMSO as control. This was followed by a 30 minute incubation step at room temperature. The stimulation time was started by addition of 2 μL/well assay media containing 2.5×EC80 agonist 6-OAU and 2.5×EC90 Forskolin (negative control: 2.5×EC90 Forskolin in assay media) and was continued for 30 minutes at room temperature. The reaction was stopped by addition of 3 μL/well lysis buffer containing cAMP Eu-Cryptate antibody (dilution 1:20) (both supplied with the kit #62AM5PEJ, Cisbio, Condolet, France). To enable complete lysis, plates were incubated for 60 minutes at room temperature before measurement in an HTRF reader, e.g. a PHERAstar (BMG Labtech, Ortenberg, Germany).
From the fluorescence emissions at 665 nm (FRET) and at 620 nm (background signal of Eu-cryptate) the ratio (emission at 665 nm divided by emission at 620 nm×10000) was calculated and the data were normalized (reaction without test compound, only 100% DMSO=0% inhibition; all other assay components except agonist=100% inhibition). For dose response testing on the same microtiter plate, compounds were tested at 11 different concentrations in the range of 20 μM to 0.07 nM (20 μM, 5.7 μM, 1.6 μM, 0.47 μM, 0.13 μM, 38 nM, 11 nM, 3.1 nM, 0.89 nM, 0.25 and 0.07 nM; dilution series prepared before the assay at the level of the 100-fold conc. stock solutions by serial 1:3.5 dilutions in 100% DMSO) in duplicate values for each concentration. IC50 values were calculated by 4-parameter fitting using a commercial software package (Genedata Screener, Basel, Switzerland).
Examples were tested in selected biological assays one or more times. […]

T1 sequence (Q9NQS5 whole entry): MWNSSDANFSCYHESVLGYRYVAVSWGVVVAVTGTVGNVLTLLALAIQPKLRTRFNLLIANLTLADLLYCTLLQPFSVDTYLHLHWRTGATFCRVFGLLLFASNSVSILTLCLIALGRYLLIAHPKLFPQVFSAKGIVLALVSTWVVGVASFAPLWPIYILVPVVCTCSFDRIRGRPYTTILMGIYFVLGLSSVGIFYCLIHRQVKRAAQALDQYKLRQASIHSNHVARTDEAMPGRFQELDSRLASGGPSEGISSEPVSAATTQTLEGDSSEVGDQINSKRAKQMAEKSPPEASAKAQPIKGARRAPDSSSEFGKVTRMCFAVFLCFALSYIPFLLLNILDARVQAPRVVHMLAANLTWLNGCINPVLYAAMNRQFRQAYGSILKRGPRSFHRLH

IC50 [µM] | SMILES
1.15 | Cc1c(C(=O)NCCN2CCC2)oc2c1-c1nn(Cc3ccccc3Cl)cc1CC2 [Example 14, N-[2-(azetidin-1-yl)ethyl]-2-[(2-chlorophenyl)methyl]-8-methyl-4,5-dihydro-2H-furo[2,3-g]indazole-7-carboxamide]
1.65 | Cc1c(C(=O)NCc2ccnn2C)oc2c1-c1nn(Cc3ccc(Cl)cc3)cc1CC2 [Example 46, 2-[(4-chlorophenyl)methyl]-8-methyl-N-[(1-methyl-1H-pyrazol-5-yl)methyl]-4,5-dihydro-2H-furo[2,3-g]indazole-7-carboxamide]
15.5 | Cc1c(C(=O)N2CCC(CO)CC2)oc2c1-c1nn(Cc3ccc(Cl)cc3)cc1CC2 [Example 79, {2-[(4-chlorophenyl)methyl]-8-methyl-4,5-dihydro-2H-furo[2,3-g]indazol-7-yl}[4-(hydroxymethyl)piperidin-1-yl]methanone]
17.4 | Cc1c(C(=O)N(C)Cc2ccccn2)oc2c1-c1nn(Cc3ccc(Cl)cc3)cc1CC2 [Example 89, 2-[(4-chlorophenyl)methyl]-N,8-dimethyl-N-[(pyridin-2-yl)methyl]-4,5-dihydro-2H-furo[2,3-g]indazole-7-carboxamide]
2.72 | Cc1c(C(=O)NCC2CC2)oc2c1-c1nn(Cc3ccc(Cl)cc3)cc1CC2 [Example 51, 2-[(4-chlorophenyl)methyl]-N-(cyclopropylmethyl)-8-methyl-4,5-dihydro-2H-furo[2,3-g]indazole-7-carboxamide]
13.8 | Cc1c(C(=O)NC2CCOCC2)oc2c1-c1nn(Cc3ccc(Cl)cc3)cc1CC2 [Example 77, 2-(4-chlorobenzyl)-8-methyl-N-(tetrahydro-2H-pyran-4-yl)-4,5-dihydro-2H-furo[2,3-g]indazole-7-carboxamide]
2.59 | Cc1c(C(=O)N2CC(Cc3ccccc3)C2)oc2c1-c1nn(Cc3ccc(Cl)cc3)cc1CC2 [Example 49, (3-benzylazetidin-1-yl){2-[(4-chlorophenyl)methyl]-8-methyl-4,5-dihydro-2H-furo[2,3-g]indazol-7-yl}methanone]
4.18 | Cc1c(C(=O)NCCN2CCOCC2)oc2c1-c1nn(Cc3ccc(Cl)cc3)cc1CC2 [Example 55, 2-[(4-chlorophenyl)methyl]-8-methyl-N-[2-(morpholin-4-yl)ethyl]-4,5-dihydro-2H-furo[2,3-g]indazole-7-carboxamide]
1.43 | Cc1c(C(=O)NCc2ccncc2)oc2c1-c1nn(Cc3ccc(Cl)cc3)cc1CC2 [Example 45, 2-[(4-chlorophenyl)methyl]-8-methyl-N-[(pyridin-4-yl)methyl]-4,5-dihydro-2H-furo[2,3-g]indazole-7-carboxamide]
0.23 | Cc1c(C(=O)NCCN2CCN(C)CC2)oc2c1-c1nn(Cc3ccccc3Cl)cc1CC2 [Example 11, 2-[(2-chlorophenyl)methyl]-8-methyl-N-[2-(4-methylpiperazin-1-yl)ethyl]-4,5-dihydro-2H-furo[2,3-g]indazole-7-carboxamide]
0.058 | Cc1c(C(=O)NCC2CCCO2)oc2c1-c1nn(Cc3ccc(Cl)cc3)cc1CC2 (racemic) [Example 21, 2-[(4-chlorophenyl)methyl]-8-methyl-N-[(2RS)-tetrahydrofuran-2-ylmethyl]-4,5-dihydro-2H-furo[2,3-g]indazole-7-carboxamide]
0.3 | Cc1c(C(=O)NCCN2CCCC2)oc2c1-c1nn(Cc3ccccc3Cl)cc1CC2 [Example 12, 2-[(2-chlorophenyl)methyl]-8-methyl-N-[2-(pyrrolidin-1-yl)ethyl]-4,5-dihydro-2H-furo[2,3-g]indazole-7-carboxamide]
0.41 | COCCNC(=O)c1oc2c(c1C)-c1nn(Cc3ccc(Cl)cc3)cc1CC2 [Example 40, 2-[(4-chlorophenyl)methyl]-N-(2-methoxyethyl)-8-methyl-4,5-dihydro-2H-furo[2,3-g]indazole-7-carboxamide]
9.5 | Cc1c(C(=O)NCCC#N)oc2c1-c1nn(Cc3ccc(Cl)cc3)cc1CC2 [Example 70, 2-[(4-chlorophenyl)methyl]-N-(2-cyanoethyl)-8-methyl-4,5-dihydro-2H-furo[2,3-g]indazole-7-carboxamide]
2.53 | CCN(CC)C(=O)CNC(=O)c1oc2c(c1C)-c1nn(Cc3ccc(Cl)cc3)cc1CC2 [Example 31, 2-[(4-chlorophenyl)methyl]-N-[2-(diethylamino)-2-oxoethyl]-8-methyl-4,5-dihydro-2H-furo[2,3-g]indazole-7-carboxamide]
2.13 | Cc1c(C(=O)NCC(N)=O)oc2c1-c1nn(Cc3ccc(Cl)cc3)cc1CC2 [Example 48, N-(2-amino-2-oxoethyl)-2-[(4-chlorophenyl)methyl]-8-methyl-4,5-dihydro-2H-furo[2,3-g]indazole-7-carboxamide]
0.24 | Cc1ccccc1Cn1cc2c(n1)-c1c(oc(C(=O)NCc3ccon3)c1C)CC2 [Example 8, 8-methyl-2-[(2-methylphenyl)methyl]-N-[(1,2-oxazol-3-yl)methyl]-4,5-dihydro-2H-furo[2,3-g]indazole-7-carboxamide]
5.04 | Cc1c(C(=O)NCCc2ccccc2)oc2c1-c1nn(Cc3ccc(Cl)cc3)cc1CC2 [Example 57, 2-[(4-chlorophenyl)methyl]-8-methyl-N-(2-phenylethyl)-4,5-dihydro-2H-furo[2,3-g]indazole-7-carboxamide]
0.074 | Cc1c(C(=O)NCC2CCCO2)oc2c1-c1nn(Cc3cccc(Cl)c3)cc1CC2 (racemic) [Example 15, 2-[(3-chlorophenyl)methyl]-8-methyl-N-[(2RS)-tetrahydrofuran-2-ylmethyl]-4,5-dihydro-2H-furo[2,3-g]indazole-7-carboxamide]
1.87 | Cc1c(C(=O)NCc2cnn(C)c2)oc2c1-c1nn(Cc3ccc(Cl)cc3)cc1CC2 [Example 47, 2-[(4-chlorophenyl)methyl]-8-methyl-N-[(1-methyl-1H-pyrazol-4-yl)methyl]-4,5-dihydro-2H-furo[2,3-g]indazole-7-carboxamide]
0.34 | Cc1ccc(CNC(=O)c2oc3c(c2C)-c2nn(Cc4ccc(Cl)cc4)cc2CC3)cc1 [Example 22, 2-[(4-chlorophenyl)methyl]-8-methyl-N-[(4-methylphenyl)methyl]-4,5-dihydro-2H-furo[2,3-g]indazole-7-carboxamide]
0.14 | Cc1ccc(Cn2cc3c(n2)-c2c(oc(C(=O)NCc4ccon4)c2C)CC3)cc1 [Example 3, 8-methyl-2-[(4-methylphenyl)methyl]-N-[(1,2-oxazol-3-yl)methyl]-4,5-dihydro-2H-furo[2,3-g]indazole-7-carboxamide]
7.83 | Cc1c(C(=O)N2CCN(S(C)(=O)=O)CC2)oc2c1-c1nn(Cc3ccc(Cl)cc3)cc1CC2 [Example 67, {2-[(4-chlorophenyl)methyl]-8-methyl-4,5-dihydro-2H-furo[2,3-g]indazol-7-yl}[4-(methanesulfonyl)piperazin-1-yl]methanone]
1.18 | Cc1ccccc1Cn1cc2c(n1)-c1c(oc(C(=O)NCC3CCCN3)c1C)CC2 (racemic) [Example 7-3, 8-methyl-2-[(2-methylphenyl)methyl]-N-{[(2RS)-pyrrolidin-2-yl]methyl}-4,5-dihydro-2H-furo[2,3-g]indazole-7-carboxamide hydrochloride (1:1)]
3.39 | Cc1c(C(=O)NCc2cncn2C)oc2c1-c1nn(Cc3ccc(Cl)cc3)cc1CC2 [Example 54, 2-[(4-chlorophenyl)methyl]-8-methyl-N-[(1-methyl-1H-imidazol-5-yl)methyl]-4,5-dihydro-2H-furo[2,3-g]indazole-7-carboxamide]
